Reference: patent publication US8871794B2, “Small-molecule agonists for type-2 orexin receptor” (Board of Regents, The University of Texas System, priority 2008, dated 2014)
Where no end group is shown, it is not given here.

How the values were obtained:
wild type C57BL/6J mice = test: Emergence from isoflurane anesthesia (return of righting reflex); format: in vivo, mouse
Protocol: Loss and Return of Righting Reflex. Induction and emergence from isoflurane or sevoflurane were defined behaviorally as the respective loss and return of the righting reflex and were evaluated as follows. Wild-type C57BL/6J male mice aged 8-14 weeks (Jackson Laboratories). were placed in cylindrical gas-tight, controlled-environment chambers arrayed in parallel (35). After 90 min of habituation with 100% oxygen each day on two successive days, anesthesia was induced with a Drager model 19.1 isoflurane or sevoflurane vaporizer by using 8-12 stepwise incremental increases in the concentration of anesthetic gas dissolved in 100% oxygen. Anesthetic gas concentrations were determined in triplicate during the last 2 min at each step (35). Initial volatile anesthetic concentrations were 0.44% isoflurane or 0.96% sevoflurane. After 15 min at each concentration to allow for equilibration of the mouse with the anesthetic vapors, the concentration of volatile anesthetic was increased by 6±3% of the preceding value. […]
Pharmacologic Inhibition of Orexin Signaling and Righting Reflex Studies. To determine the effect of the orexin-1R antagonist, SB-334867-A (Tocris Bioscience), on induction of anesthesia, 24 C57BL/6J mice were evaluated for both the concentration at which the righting reflex was lost as well as a separate experiment to measure the latency to loss of righting. […]

wild-type mice = test: Diet-induced obesity in mice; format: in vivo, mouse
Text: To examine whether enhanced OX2R signaling causes resistance to diet-induced obesity, an OX2R selective agonist, [Ala11, D-Leu15] Orexin-B (Akanmu and Honma, 2005 Brain. Res. 1048. 138-145.; Asahi et al., 2003 Bioorg. Med. Chem. Lett. 13.
111-113) was continuously infused in the lateral ventricles of wild-type mice for 14 days. […] There was no effect of the OX2R selective agonist for OX2R-deficient mice on a high fat diet (n=4, weight gain 3.33±0.61 g), verifying the selectivity of the agonist in vivo.

[1] = test system: orexin/ataxin-3-transgenic mice; test: Cataplexy testing in orexin/ataxin-3-transgenic mice; format: in vivo; details: 3 nmol per mouse i.c.v., first 3 h after injection, vs vehicle
Text: (§1) Aspects of this example, including more detailed descriptions of the production of the CAG/orexin-transgenic mice, the cataplexy testing, cannulation (i.c.v.) and orexin administration and EEG/EMG recordings were published in Mieda et al., PNAS USA Mar. 30, 2004; 101(13):4649-54.
(§2) We administered orexin-A, a nonselective agonist for orexin receptor type 1 (OX1R) and OX2R.
We examined whether i.c.v. orexin-A administration suppresses cataplectic arrests in orexin/ataxin-3-transgenic mice. By using a randomized crossover design, we administered vehicle and orexin-A to all mice during separate experimental sessions. […] Thus, i.c.v. administration of orexin-A is sufficient to acutely suppress behavioral arrests in this model of narcolepsy.

[2] = test system: orexin/ataxin-3 mice and wild-type controls; test: EEG/EMG sleep/wake recording in orexin/ataxin-3 and wild-type mice; format: in vivo, mouse
Text: as §1, §2
To quantify the effects of orexin-A administration on sleep/wake status, we recorded EEG/EMG in orexin/ataxin-3 mice, as well as wild-type controls. […] Nevertheless, some pharmacological effects of exogenous orexins have been reported to vary with time of day (Zeitgeber-dependent effects). We therefore examined the effects of orexin-A administrations in mice both at the onset of the dark (active) phase as well as during the light (resting) phase, again by using a randomized crossover design.

[3] = 0.5 nmol/d infused in lateral ventricles, 14 days, wild-type mice
[4] = 3 nmol i.c.v., regardless of genotype and time of administration

Molecule: Cc1nc2ccc(NC(=O)Nc3ccnc4cccnc34)cc2o1.Cl [SB-334867-A]
- emergence from isoflurane anesthesia, dose dependence (wild type C57BL/6J mice; 5 mg/kg or 20 mg/kg i.p., 1.25% isoflurane): dose-dependent delay in emergence
- emergence from isoflurane anesthesia (wild type C57BL/6J mice; 20 mg/kg i.p. (F2,45=8.80, P<0.001)): significantly delayed emergence

Molecule: [Ala11, D-Leu15] Orexin-B
- weight gain on a high fat diet (wild-type mice; [3]): suppressed weight gain
- weight homeostasis on a low fat diet (wild-type mice; [3]): without altering weight homeostasis
- fat mass gain vs vehicle on a high fat diet (wild-type mice; 14 days, wild-type mice, high fat diet): gained significantly less fat mass
- fat mass gain on a low fat diet (wild-type mice; 14 days, wild-type mice, low fat diet): no effect was observed
- effect for OX2R-deficient mice on a high fat diet (wild-type mice; OX2R-deficient mice, high fat diet): no effect
- weight gain (wild-type mice; OX2R-deficient mice, high fat diet, n=4): 3.33 ± 0.61 g
- change in LEPR, POMC, SOCS3, STAT3 transcripts (wild-type mice; after 14 days): no significant change
- hypothalamic mRNA expression of orexigenic factors NPY and AGRP (wild-type mice; after 14 days, high fat diet compared to low fat diet): reduced hypothalamic mRNA expression
- food intake (wild-type mice; high fat vs low fat diet): reduced food intake only on a high fat but not on low fat diet

Molecule: orexin-A: a nonselective agonist for orexin receptor type 1 (OX1R) and OX2R (QPLPDCCRQKTCSCRLYELLHGAGNHAAGILTL; ends and bridges not checked; cysteine pairing not given here; UniProt O43612 34-66, looked up)
- frequency of cataplectic arrests [1]: significantly reduced
- overall time spent in cataplexy [1]: significantly reduced
- non-REM sleep in narcoleptic animals compared with wild-type ([2]; 3 nmol i.c.v., 3-h period): significantly greater suppressions of non-REM sleep
- wakefulness in orexin/ataxin-3-transgenic mice compared with wild-type mice ([2]; 3 nmol i.c.v., 3-h period): significantly greater amounts of wakefulness
- elevation of REM sleep in narcoleptic mice ([2]; 3 nmol i.c.v., dark phase): effectively suppressed this elevation of REM sleep
- non-REM and REM sleep [2, 4]: suppressed both non-REM and REM sleep
- wakefulness [2, 4]: strikingly increased wakefulness
- REM sleep suppression, narcoleptic mice vs wild-type controls ([2]; 3 nmol i.c.v., regardless of the time of administration): more effective at suppressing REM sleep in narcoleptic mice than in wild-type controls
- effects in knockout mice lacking both OX1R and OX2R genes ([2]; 3 nmol per mouse i.c.v.): no detectable effects
- cumulative wakefulness and cumulative sleep in narcoleptic animals ([2]; 24 h after a nocturnal administration): statistically significant increase of cumulative wakefulness and a decrease of cumulative sleep
- immediate rebounds of sleep ([2]; after dark-phase or light-phase administration): no immediate rebounds of sleep were observed
